Test results: ChEMBL document CHEMBL1137473, “Pyrazole-based cathepsin S inhibitors with improved cellular potency” (Bioorg Med Chem Lett, 2007)
Activity calls are given as the source filed them. The rule behind the calls is not given here.

What was measured:
Cathepsin S [1] = molecular target: T1, Cathepsin S (Homo sapiens, UniProt P25774); experiment: Inhibition of human cathepsin S
Target sequence in this assay (P25774 whole entry): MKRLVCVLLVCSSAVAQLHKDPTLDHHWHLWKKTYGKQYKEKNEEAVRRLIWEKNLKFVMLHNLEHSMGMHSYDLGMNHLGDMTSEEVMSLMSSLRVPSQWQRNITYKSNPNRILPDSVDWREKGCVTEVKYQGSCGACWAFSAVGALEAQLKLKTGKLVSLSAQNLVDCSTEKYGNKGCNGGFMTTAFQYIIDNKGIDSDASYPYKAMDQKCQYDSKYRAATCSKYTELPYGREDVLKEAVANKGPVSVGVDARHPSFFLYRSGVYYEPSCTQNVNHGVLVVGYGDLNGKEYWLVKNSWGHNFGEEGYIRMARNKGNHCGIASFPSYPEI

Legumain (Homo sapiens) = molecular target: T2, Legumain (Homo sapiens) (UniProt Q99538); experiment: Inhibition of legumain upto 5 uM
T2 sequence (whole entry): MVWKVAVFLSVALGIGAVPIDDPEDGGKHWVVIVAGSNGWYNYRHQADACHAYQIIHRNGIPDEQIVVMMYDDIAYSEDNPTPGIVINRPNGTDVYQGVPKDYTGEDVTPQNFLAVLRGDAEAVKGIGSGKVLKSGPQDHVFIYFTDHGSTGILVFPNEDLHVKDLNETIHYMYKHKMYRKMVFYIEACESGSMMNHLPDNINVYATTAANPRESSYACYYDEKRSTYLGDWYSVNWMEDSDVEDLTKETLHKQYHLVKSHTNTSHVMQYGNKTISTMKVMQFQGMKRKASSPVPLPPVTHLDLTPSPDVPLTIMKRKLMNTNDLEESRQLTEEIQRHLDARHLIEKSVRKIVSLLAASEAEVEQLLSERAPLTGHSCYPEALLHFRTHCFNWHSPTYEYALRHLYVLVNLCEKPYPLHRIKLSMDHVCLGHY

[2] = molecular target: Cathepsin B (Homo sapiens) (UniProt P07858); experiment: Inhibition of cathepsin B upto 5 uM
[3] = molecular target: T3, Cathepsin E (Homo sapiens) (UniProt P14091); experiment: Inhibition of cathepsin E upto 5 uM
T3 sequence (whole entry): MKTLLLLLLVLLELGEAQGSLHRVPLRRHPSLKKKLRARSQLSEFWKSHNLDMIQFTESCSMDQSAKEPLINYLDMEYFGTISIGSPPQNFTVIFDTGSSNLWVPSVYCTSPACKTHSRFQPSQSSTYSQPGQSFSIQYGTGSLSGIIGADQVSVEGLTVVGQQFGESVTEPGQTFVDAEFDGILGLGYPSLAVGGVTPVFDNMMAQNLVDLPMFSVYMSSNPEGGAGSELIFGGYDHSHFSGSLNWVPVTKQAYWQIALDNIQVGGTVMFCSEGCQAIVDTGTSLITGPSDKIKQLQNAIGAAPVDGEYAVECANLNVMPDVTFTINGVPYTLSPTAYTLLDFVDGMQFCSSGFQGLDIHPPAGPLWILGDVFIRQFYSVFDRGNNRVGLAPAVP

[4] = molecular target: Procathepsin L (Homo sapiens) (UniProt P07711); experiment: Inhibition of cathepsin L upto 5 uM
Sequence of Procathepsin L (Homo sapiens) (P07711 114-333 limits assumed): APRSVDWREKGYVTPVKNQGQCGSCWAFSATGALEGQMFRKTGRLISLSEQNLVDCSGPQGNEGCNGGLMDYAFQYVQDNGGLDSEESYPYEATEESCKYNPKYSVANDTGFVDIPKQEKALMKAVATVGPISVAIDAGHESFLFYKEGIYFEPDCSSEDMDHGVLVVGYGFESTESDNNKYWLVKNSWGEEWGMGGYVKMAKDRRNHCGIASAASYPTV

Cathepsin S [5] = molecular target: T1, Cathepsin S; experiment: Inhibition of cathepsin S in human JY cells by invariant chain degradation assay; format: cell-based
Target sequence in this assay (P25774 whole entry): as the sequence (P25774 whole entry) above

Cathepsin S [6] = molecular target: T1, Cathepsin S; experiment: Inhibition of cathepsin S in human JY cells upto 10 uM by invariant chain degradation assay; format: cell-based
Target sequence in this assay (P25774 115-331 limits assumed): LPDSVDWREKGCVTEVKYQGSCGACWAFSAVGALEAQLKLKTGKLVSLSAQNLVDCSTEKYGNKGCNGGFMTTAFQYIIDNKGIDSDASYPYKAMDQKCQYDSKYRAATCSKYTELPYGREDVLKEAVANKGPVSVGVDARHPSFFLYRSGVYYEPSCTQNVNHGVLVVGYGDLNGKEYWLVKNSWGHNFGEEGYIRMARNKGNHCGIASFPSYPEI

Structure (SMILES) | IC50 (Cathepsin S [1]) [nM] | IC50 (Cathepsin S [5]) [nM] | other results
COC(=O)c1sc2cc(F)ccc2c1C1CCN(CC(O)Cn2nc(-c3ccc(C(F)(F)F)cc3)c3c2CCN(C(C)=O)C3)CC1 (stereo unspecified) | 140 |  | 
CS(=O)(=O)N1CCc2c(c(-c3ccc(C(F)(F)F)cc3)nn2CC(O)CN2CCC(c3c[nH]c4cnccc34)CC2)C1 (stereo unspecified) |  |  | Activity (Legumain (Homo sapiens)): inactive; Activity [2]: inactive; Activity [3]: inactive; Activity [4]: inactive
CS(=O)(=O)N1CCc2c(c(-c3ccc(C(F)(F)F)cc3)nn2CC(O)CN2CCC(N3C(=O)COc4ccccc43)CC2)C1 (stereo unspecified) | 10 | 800 | 
CC(=O)N1CCc2c(c(-c3ccc(C(F)(F)F)cc3)nn2CC(O)CN2CCC(c3coc4cc(F)ccc34)CC2)C1 (stereo unspecified) | 360 |  | 
CS(=O)(=O)N1CCc2c(c(-c3ccc(C(F)(F)F)cc3)nn2CC(O)CN2CCC(c3c[nH]c4cccnc34)CC2)C1 (stereo unspecified) |  |  | Activity (Legumain (Homo sapiens)): inactive; Activity [2]: inactive; Activity [3]: inactive; Activity [4]: inactive
CS(=O)(=O)N1CCc2c(c(-c3ccc(C(F)(F)F)cc3)nn2CC(O)CN2CCC(c3c[nH]c4ncccc34)CC2)C1 (stereo unspecified) |  |  | Activity (Legumain (Homo sapiens)): inactive; Activity [3]: inactive; Activity [4]: inactive
CN(C)C(=O)c1sc2cc(F)ccc2c1C1CCN(CCCn2nc(-c3ccc(C(F)(F)F)cc3)c3c2CCN(S(C)(=O)=O)C3)CC1 | 370 |  | 
COC(=O)c1sc2cc(F)ccc2c1C1CCN(CCCn2nc(-c3ccc(C(F)(F)F)cc3)c3c2CCN(S(C)(=O)=O)C3)CC1 | 130 | 1800 | 
CS(=O)(=O)N1CCc2c(c(-c3ccc(C(F)(F)F)cc3)nn2CCCN2CCC(c3c(C(=O)O)sc4cc(F)ccc34)CC2)C1 | 100 | > 10000 | 
CS(=O)(=O)N1CCc2c(c(-c3ccc(C(F)(F)F)cc3)nn2CC(O)CN2CCC(c3c[nH]c4ccncc34)CC2)C1 (stereo unspecified) |  |  | Activity (Legumain (Homo sapiens)): inactive; Activity [2]: inactive; Activity [3]: inactive; Activity [4]: inactive
N#Cc1ccccc1N1CCN(CC(Cn2nc(-c3ccc(I)cc3)c3c2CCN(C(N)=O)C3)OC(N)=O)CC1 (stereo unspecified) | 10 | 800 | 
Cn1c(=O)n(C2CCN(CCCn3nc(-c4ccc(Cl)c(Cl)c4)c4c3CCN(S(C)(=O)=O)C4)CC2)c2ccccc21 | 10 | 800 | 
COC(=O)c1oc2cc(F)ccc2c1C1CCN(CC(O)Cn2nc(-c3ccc(C(F)(F)F)cc3)c3c2CCN(C(C)=O)C3)CC1 (stereo unspecified) | 220 |  | 

The next lines start with results.

IC50 (Cathepsin S [1]) [nM] | IC50 (Cathepsin S [5]) [nM] | Structure (SMILES) | other results
180 |  | CS(=O)(=O)N1CCc2c(c(-c3ccc(C(F)(F)F)cc3)nn2CC(O)CN2CCC(c3csc4cc(F)ccc34)CC2)C1 (stereo unspecified) | 
95 |  | CC(=O)N1CCc2c(c(-c3ccc(C(F)(F)F)cc3)nn2CC(O)CN2CCC(c3c[nH]c4ccc(Cl)cc34)CC2)C1 (stereo unspecified) | Activity (Cathepsin S [6]): inactive
77 | 150 | CS(=O)(=O)N1CCc2c(c(-c3ccc(Br)cc3)nn2CC(O)CN2CCC(c3c[nH]c4ccncc34)CC2)C1 (stereo unspecified) | 
195 |  | CS(=O)(=O)N1CCc2c(c(-c3ccc(Br)cc3)nn2CC(O)CN2CCC(c3c[nH]c4ncccc34)CC2)C1 (stereo unspecified) | 
290 |  | CC(=O)N1CCc2c(c(-c3ccc(C(F)(F)F)cc3)nn2CC(O)CN2CCC(c3csc4cc(F)ccc34)CC2)C1 (stereo unspecified) | 
